Assays:
HepG2 cells = test: Lipid uptake assay (Nile Red), in vitro liver steatosis model; format: cell-based
Experimental: HepG2 cells: 5000 cells were plated in 96-well plate. The next day cells were treated with tested compounds for 4 hours and then treated with 1 mM oleic acid for additional 24 hours. Cells were then stained with Nile Red and lipid content was measured using Spectra Max i3X plate reader (Molecular Devices) and quantified with the SoftMax Pro 6 software.

[1] = system: Salmonella typhimurium tester strain TA1535; test: Ames test (Bacterial Reverse Mutation Test), TA1535; format: cell-based
Experimental: PD152 (compound 2) was tested for genotoxic and cytotoxic side effects by Ames test. The Ames test is a Bacterial Reverse Mutation Test of mutagenicity that utilizes Salmonella typhimurium tester strains TA98, TA100, TA1535, TA1537 and Escherichia coli tester strain WP2 uvrA (pKM101), both in the presence and absence of S9.
The compound PD152 was tested at 10 concentrations (0.032-1000 μg/plate) in the presence of, or absence of, the hepatic enzyme S9.
The aniline FABP4/5 inhibitor compound, 2-((2-((2,4-dichloro-5-isopropoxyphenyl)amino)-2-oxoethyl)thio)-2-methylpropanoic acid (compound “B104” as disclosed in WO2023043803A1) also was tested for genotoxic and cytotoxic side effects by Ames test. B104 was tested using the Salmonella typhimurium tester stains TA98, TA100, TA1535, and TA1537, both in the presence and absence of the hepatic enzyme S9, at 5 concentrations (1.5-64 μg/plate).

[2] = TA1535, absence of S9, 0.0312 μg/plate
[3] = TA1535, absence of S9, 0.1 μg/plate
[4] = TA1535, absence of S9, 0.316 μg/plate
[5] = TA1535, absence of S9, 1 μg/plate
[6] = TA1535, absence of S9, 3.16 μg/plate
[7] = TA1535, absence of S9, 10 μg/plate
[8] = TA1535, absence of S9, 31.6 μg/plate
[9] = TA1535, absence of S9, 100 μg/plate
[10] = TA1535, absence of S9, 316 μg/plate
[11] = TA1535, absence of S9, 1000 μg/plate
[12] = TA1535, presence of S9, 0.0312 μg/plate
[13] = TA1535, presence of S9, 0.1 μg/plate
[14] = TA1535, presence of S9, 0.316 μg/plate
[15] = TA1535, presence of S9, 1 μg/plate
[16] = TA1535, presence of S9, 3.16 μg/plate
[17] = TA1535, presence of S9, 10 μg/plate
[18] = TA1535, presence of S9, 31.6 μg/plate
[19] = TA1535, presence of S9, 100 μg/plate
[20] = TA1535, presence of S9, 316 μg/plate
[21] = TA1535, presence of S9, 1000 μg/plate

CC(C)Oc1nc(NC(=O)CSCC(=O)O)c(Cl)cc1Cl [PD152, 2-((2-((3,5-dichloro-6-isopropoxypyridin-2-yl)amino)-2-oxoethyl)thio)acetic acid]
IC50 (HepG2 cells; Homo sapiens, compound 4 h then oleic acid 1 mM 24 h, Nile Red, read-out: IC50 for inhibition of lipid uptake): 553 nM
Treatment concentrations at which lipid uptake was markedly inhibited (HepG2 cells; oleic acid 1 mM): > 0.2 µM
Fold increase [1, 2]: 1
Mean number of revertants [1, 2]: 3
Fold increase [1, 3]: 1
Mean number of revertants [1, 3]: 3
Fold increase [1, 4]: 1
Mean number of revertants [1, 4]: 3
Fold increase [1, 5]: 1
Mean number of revertants [1, 5]: 3
Fold increase [1, 6]: 1
Mean number of revertants [1, 6]: 3
Fold increase [1, 7]: 1
Mean number of revertants [1, 7]: 4
Fold increase [1, 8]: 1
Mean number of revertants [1, 8]: 4
Fold increase [1, 9]: 1
Mean number of revertants [1, 9]: 4
Fold increase [1, 10]: 1
Mean number of revertants [1, 10]: 3
Fold increase [1, 11]: 1
Mean number of revertants [1, 11]: 3
Fold increase [1, 12]: 1
Mean number of revertants [1, 12]: 3
Fold increase [1, 13]: 1
Mean number of revertants [1, 13]: 4
Fold increase [1, 14]: 1
Mean number of revertants [1, 14]: 3
Fold increase [1, 15]: 1
Mean number of revertants [1, 15]: 4
Fold increase [1, 16]: 1
Mean number of revertants [1, 16]: 4
Fold increase [1, 17]: 1
Mean number of revertants [1, 17]: 4
Fold increase [1, 18]: 1
Mean number of revertants [1, 18]: 4
Fold increase [1, 19]: 1
Mean number of revertants [1, 19]: 4
Fold increase [1, 20]: 1
Mean number of revertants [1, 20]: 4
Fold increase [1, 21]: 1
Mean number of revertants [1, 21]: 4

Reference: patent US20250325529A1, “INHIBITORS OF FATTY ACID BINDING PROTEINS (FABPs), METHODS OF USE AND METHODS OF MAKING” (Celloram, inc., priority 2024, published 2025)
